These results are taken from patent US11021478B2, “Indolizine derivatives and their application in medicine” (Kind Pharmaceutical, priority 2017, dated 2021).

Bounds are passed on as bounds.

The target in one assay is HIF prolyl hydroxylase-2 (HIF-PHD2) (Homo sapiens (Human), UniProt Q9GZT9). The assay can be described thus: Effect of compounds on activities of HIF prolyl hydroxylase-2 (hydroxylation of immobilized HIF-1α556-574 peptide, Eu-VBC binding, OD 450 nm). It is filed as biochemical. The note with it: HIF-PHD2, biotinyl-HIF-1α556-574 substrate; representative, relative values.
Chain of HIF prolyl hydroxylase-2 (HIF-PHD2) (Q9GZT9 whole entry, species assumed): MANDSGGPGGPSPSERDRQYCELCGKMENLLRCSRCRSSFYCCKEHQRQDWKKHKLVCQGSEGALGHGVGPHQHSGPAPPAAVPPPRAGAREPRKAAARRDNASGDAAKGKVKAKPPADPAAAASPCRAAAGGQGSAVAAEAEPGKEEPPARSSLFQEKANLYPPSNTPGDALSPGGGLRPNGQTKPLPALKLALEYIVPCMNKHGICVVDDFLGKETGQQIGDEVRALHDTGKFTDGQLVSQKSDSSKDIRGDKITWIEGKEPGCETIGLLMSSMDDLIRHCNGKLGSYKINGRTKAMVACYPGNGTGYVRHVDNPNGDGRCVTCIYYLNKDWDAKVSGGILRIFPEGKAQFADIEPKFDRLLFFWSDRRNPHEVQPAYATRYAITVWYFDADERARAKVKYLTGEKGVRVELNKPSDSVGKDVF
As for `COC(=O)CNC(=O)C1=C(O)C2(CCCC2)n2cccc2C1=O` [Example 9, (6′-Hydroxy-8′-oxo-8′H-spiro[cyclopentane-1,5′-indolizine]-7′-carbonyl)glycine methyl ester], the IC50 (in general, the concentration that inhibits the measured activity by half) is > 10 µM.
Still for that read-out and setting: under `CCOC(=O)CNC(=O)C1=C(O)C2(CCCC2)n2cccc2C1=O` [Example 10, (6′-Hydroxy-8′-oxo-8′H-spiro[cyclopentane-1,5′-indolizine]-7′-carbonyl)glycine ethyl ester] stands > 10 µM.
Regarding `CCOC(=O)[C@H](C)NC(=O)C1=C(O)C2(CCCC2)n2cccc2C1=O` [Example 21, (6′-Hydroxy-8′-oxo-8′H-spiro[cyclopentane-1,5′-indolizine]-7′-carbonyl)-L-alanine ethyl ester], the IC50 was > 10 µM.
In the case of `CC(C)(C)C(=O)OCOC(=O)CNC(=O)C1=C(O)C2(CCCCC2)n2cccc2C1=O` [Example 22, (((6′-hydroxy-8′-oxo-8′H-spiro[cyclohexane-1,5′-indolizine]-7′-carbonyl)glycyloxy)methyl) pivalate], the IC50 is > 10 µM.
Regarding `CCOC(=O)CNC(=O)C1=C(O)C2(CCCCC2)n2cccc2C1=O` [Example 46, (6′-Hydroxy-8′-oxo-8′H-spiro[cyclohexane-1,5′-indolizine]-7′-carbonyl)glycine ethyl ester], the IC50 was > 10 µM.

The next assay has as its system hemoglobin in mice. The assay can be described thus: Effect of compounds of Examples on hemoglobin in mice. It is filed as in vivo. The note with it: male C57B1/6 mice, oral 30 mg/kg, 3 times each week for 2 weeks; 6 hours after last administration minus before first administration. As for the experimental part: Male C57B1/6 mice of 8-10 weeks (Shanghai Slack Laboratory Animals Co., Ltd.) were administrated orally the test compounds in 30 mg/kg for 2 weeks, 3 times each week and Roxadustat (CAS: 808118-40-3) was administrated in an amount of 60 mg/kg as a positive control. Before the first administration and 6 hours after the last administration, about 30 μl of blood was taken from the mandibular vein, and the hemoglobin content was measured by Hemocue hemoglobin analyzer. The hemoglobin elevation was calculated as the value obtained by subtracting the first hemoglobin content from the hemoglobin content after the last administration.
In addition, hemoglobin elevation was also tested in the same manner for Roxadustat as a positive control. Roxadustat was purchased from Selleckchem, which was known to be a potent inhibitor of HIF prolyl hydroxylase in the art and be able to increase hemoglobin production.
In turn, `O=C(O)CNC(=O)C1=C(O)C2(CC2)n2cccc2C1=O` [Example 1, (6′-Hydroxy-8′-oxo-8′H-spiro[cyclopropane-1,5′-indolizine]-7′-carbonyl) glycine] registered a Hemoglobin elevation of 1.0 g/dL.
For `C[C@H](NC(=O)C1=C(O)C2(CC2)n2cccc2C1=O)C(=O)O` [Example 2, (6′-Hydroxy-8′-oxo-8′H-spiro[cyclopropane-1,5′-indolizine]-7′-carbonyl)-L-alanine], the Hemoglobin elevation turned out to be 0.6 g/dL.
In turn, `CC1(C)C(O)=C(C(=O)NCC(=O)O)C(=O)c2cccn21` [Example 4, (6-Hydroxy-5,5-dimethyl-8-oxo-5,8-dihydroindolizin-7-carbonyl) glycine] displayed a Hemoglobin elevation of 0.8 g/dL.
The same measure, in the same setting: then `C[C@H](NC(=O)C1=C(O)C(C)(C)n2cccc2C1=O)C(=O)O` [Example 5, (6-Hydroxy-5,5-dimethyl-8-oxo-5,8-dihydroindolizin-7-carbonyl)-L-alanine], with 1.0 g/dL.
For the compound `O=C(O)CNC(=O)C1=C(O)C2(CCC2)n2cccc2C1=O` [Example 6, (6′-Hydroxy-8′-oxo-8′H-spiro[cyclobutane-1,5′-indolizine]-7′-carbonyl)glycine], the Hemoglobin elevation came to 0.9 g/dL.
With `C[C@H](NC(=O)C1=C(O)C2(CCC2)n2cccc2C1=O)C(=O)O` [Example 7, (6′-Hydroxy-8′-oxo-8′H-spiro[cyclobutane-1,5′-indolizine]-7′-carbonyl)-L-alanine], the Hemoglobin elevation was found to be 0.7 g/dL.
The compound `O=C(O)CNC(=O)C1=C(O)C2(CCCC2)n2cccc2C1=O` [Example 8, (6′-Hydroxy-8′-oxo-8′H-spiro[cyclopentane-1,5′-indolizine]-7′-carbonyl)glycine] came in with a Hemoglobin elevation of 3.1 g/dL.
In turn, `COC(=O)CNC(=O)C1=C(O)C2(CCCC2)n2cccc2C1=O` [Example 9, (6′-Hydroxy-8′-oxo-8′H-spiro[cyclopentane-1,5′-indolizine]-7′-carbonyl)glycine methyl ester] had a Hemoglobin elevation of 2.0 g/dL.
Turning to `CCOC(=O)CNC(=O)C1=C(O)C2(CCCC2)n2cccc2C1=O` [Example 10, (6′-Hydroxy-8′-oxo-8′H-spiro[cyclopentane-1,5′-indolizine]-7′-carbonyl)glycine ethyl ester], the Hemoglobin elevation is reported as 1.9 g/dL.
Regarding `C[C@H](NC(=O)C1=C(O)C2(CCCC2)n2cccc2C1=O)C(=O)O` [Example 11, (6′-Hydroxy-8′-oxo-8′H-spiro[cyclopentane-1,5′-indolizine]-7′-carbonyl)-L-alanine], the Hemoglobin elevation is 2.0 g/dL.
Turning to `C[C@@H](NC(=O)C1=C(O)C2(CCCC2)n2cccc2C1=O)C(=O)O` [Example 12, (6′-Hydroxy-8′-oxo-8′H-spiro[cyclopentane-1,5′-indolizine]-7′-carbonyl)-D-alanine], the Hemoglobin elevation turned out to be 0.8 g/dL.
Regarding `O=C(O)CNC(=O)C1=C(O)C2(CCCCC2)n2cccc2C1=O` [Example 13, (6′-Hydroxy-8′-oxo-8′H-spiro[cyclohexane-1,5′-indolizine]-7′-carbonyl)glycine], the Hemoglobin elevation was found to be 4.3 g/dL.
On the same count and under the same terms, then `C[C@H](NC(=O)C1=C(O)C2(CCCCC2)n2cccc2C1=O)C(=O)O` [Example 14, (6′-Hydroxy-8′-oxo-8′H-spiro[cyclohexane-1,5′-indolizine]-7′-carbonyl)-L-alanine], with 1.0 g/dL; and `CCOC(=O)[C@H](C)NC(=O)C1=C(O)C2(CCCC2)n2cccc2C1=O` [Example 21, (6′-Hydroxy-8′-oxo-8′H-spiro[cyclopentane-1,5′-indolizine]-7′-carbonyl)-L-alanine ethyl ester], with 1.8 g/dL; and `O=C(O)CNC(=O)C1=C(O)C2(CCCC2)n2c(ccc2-c2ccccc2)C1=O` [Example 24, (6′-Hydroxy-8′-oxo-3′-phenyl-8′H-spiro[cyclopentane-1,5′-indolizine]-7′-carbonyl)glycine], with 4.0 g/dL.
Take `O=C(O)CNC(=O)C1=C(O)C2(CCCCC2)n2c(ccc2-c2ccccc2)C1=O` [Example 35, (6′-Hydroxy-8′-oxo-3′-phenyl-8′H-spiro[cyclohexane-1,5′-indolizine]-7′-carbonyl)glycine]: the Hemoglobin elevation was 2.5 g/dL.
`O=C(O)CNC(=O)C1=C(O)C2(CCC2)n2c(ccc2-c2ccccc2)C1=O` [Example 39, (6′-Hydroxy-8′-oxo-3′-phenyl-8′H-spiro[cyclobutane-1,5′-indolizine]-7′-carbonyl)glycine]: the Hemoglobin elevation amounted to 4.8 g/dL.
The compound `O=C(O)CNC(=O)C1=C(O)C2(CCCC2)n2ccc(C3CC3)c2C1=O` [Example 62, (1′-cyclopropyl-6′-hydroxy-8′-oxo-8′H-spiro[cyclopentane-1,5′-indolizine]-7′-carbonyl)glycine] came in with a Hemoglobin elevation of 0.1 g/dL.
`O=C(O)CNC(=O)C1=C(O)C2(CCCCCC2)n2cccc2C1=O` [Example 67, (6′-Hydroxy-8′-oxo-8′H-spiro[cycloheptane-1,5′-indolizine]-7′-carbonyl)glycine]: the Hemoglobin elevation was determined as 0.8 g/dL.
In turn, `C[C@H]1CC[C@]2(CC1)C(O)=C(C(=O)NCC(=O)O)C(=O)c1cccn12` [Example 68, ((1,4-trans)-6′-hydroxy-4-methyl-8′-oxo-8′H-spiro[cyclohexane-1,5′-indolizine]-7′-carbonyl)glycine] displayed a Hemoglobin elevation of 5.2 g/dL.
`C[C@H]1CC[C@@]2(CC1)C(O)=C(C(=O)NCC(=O)O)C(=O)c1cccn12` [Example 69, ((1,4-cis)-6′-hydroxy-4-methyl-8′-oxo-8′H-spiro[cyclohexane-1,5′-indolizine]-7′-carbonyl)glycine]: the Hemoglobin elevation came to 0.7 g/dL.

Still in this assay, the particulars now being: positive control, male C57B1/6 mice, 60 mg/kg, 3 times each week for 2 weeks; 6 hours after last administration minus before first administration.
Turning to `Cc1nc(C(=O)NCC(=O)O)c(O)c2ccc(Oc3ccccc3)cc12` [Roxadustat, reference compound], the Hemoglobin elevation is 1.7 g/dL.
